As usually defined, the Km is the substrate concentration at which the rate is half of its maximum.

Data set [1] is described as follows: Absorbance spectra of coumarin derivatives. In kind it is physicochemical. Conditions: 10 μM, 100 mM Tris–HCl pH 7.4, 10% dimethyl sulfoxide. How it is done: The absorbance spectra of 10 μM coumarin derivatives at 100 mM Tris–HCl pH 7.4 containing 10% dimethyl sulfoxide were measured using a Hitachi U-2000 Spectrophotometer (Tokyo, Japan). Excitation and emission fluorescence spectra of 0.1 μM coumarin derivatives in 100 mM Tris-HCl pH 7.4 were measured using a Shimadzu RF-5000 spectrophotofluorometer (Tokyo, Japan). The excitation spectra was from 200 to 420 at 460 nm emission and the emission spectra was from 400 to 600 at 390 nm excitation (data in Supplementary Table S1 and Figures S1 and S2). The effect of pH on fluorescence intensity was determined at 405 nm excitation and 460 nm emission, in the presence of 1.5% trichloroacetic acid, 100 mM phosphate buffers at pH 5, 6, 7, 8, and 9, or 1.6 M glycine–NaOH pH 10.4.

Another data set deals with human UGTs. The experiment in a line: Recombinant human UGT screen: glucuronidation rates across human UGTs. In kind it is biochemical. Conditions: 10 μM aglycone; other UGTs at very low rates. How it is done:
Recombinant human UGTs 1A1, 1A3, 1A6, 1A7, 1A8, 1A9, 1A10, 2A1, 2A2, 2A3, 2B4, 2B10, 2B7, and 2B17 were produced, as His-tagged proteins, in baculovirus-infected insect cells as previously described.[37]−[39] The relative expression level of each of these recombinant UGTs was evaluated by immunodetection, using monoclonal antibody against the His-tag, as described elsewhere.[40] A numeric value of 1.0 was given to the expression level of UGT1A8 and the relative expression level of each of the other UGTs was related to this value. Normalized activities were obtained by dividing the glucuronidation rate values by the relative expression level of the tested UGT. In addition, UGTs 1A4, 2B10, and 2B15 were purchased from Corning Life Sciences (New York) and are marked, in Figure 5, with a “C” to indicate that they are commercial enzymes. The expression levels of the UGTs in the commercial samples could not be determined, so their protein concentration was used to calculate the reaction rate.
(§1) The incubation mixtures for glucuronidation assays contained 100 mM Tris-HCl buffer pH 7.4, 2.5 mM MgCl2, 0.5 mM UDPGA, recombinant UGT, or microsomes as the enzyme source and 0–15 μM of the test aglycone substrate. When the incubation mixtures contained microsomes, alamethicin was used at a final concentration of 12.5 μg/mL, but it was not included in the recombinant enzyme assays.[43] In the first experiments three negative control samples were tested, namely (i) without the substrate 7-hydroxycoumarin derivative, (ii) without the cofactor UDPGA, or (iii) without the enzyme source. In subsequent experiments, the control samples lacked the enzyme source since it gave the highest fluorescence background. Preliminary experiments were done under different conditions than most of the later assays, namely in 2.5 mL of 100 mM phosphate buffer pH 7.4, containing 500 μg pig liver microsomes, 1.0 μM compound 6 and 0.5 mM UDPGA, at room temperature. Fluorescence spectra (excitation 200–420 nm; emission 400–600 nm) or fluorescence decrease at 390 nm excitation and 460 nm emission, were measured in these preliminary experiments, using a Shimadzu RF-5000 spectrophotofluorometer.
(§2) Most of the glucuronidation assays were carried out in 96 multiwell plate format, and incubations were carried out in 100 μL and at 37 °C, in the presence of Tris–HCl buffer pH 7.4, UDPGA, and the tested 7-hydroxycoumarin derivative, at the indicated concentrations. Fluorescence decline in the multiwell plate experiments was monitored every other minute, for 40 min, using an excitation filter at 405 nm and detection at 460 nm, in a Victor2 1420 Multilabel counter (PerkinElmer, Life Sciences, Turku, Finland). The fluorescence values were transformed into molarity using the aglycone substrates for making the respective standard curves. Slopes of the substrate concentration decrease per minute were calculated using linear regression analysis, in which the linear part of the kinetic assay indicated the glucuronidation rate. Enzyme catalyzed glucuronidation rate was calculated by subtracting the blank value from the full reaction value. The intra-assay variability of the kinetic assays was 6% when compound 6 was used as the aglycone substrate. Kinetic analyses were also performed in the same 96 multiwell plates format, with excitation filter at 405 nm and detection at 460 nm, using 6–8 different substrate concentrations per substrate and two different protein concentrations for both the wild-type and mutant UGT1A10. The higher concentrations, 13.5 mg/L for UGT1A10 and 12.0 mg/L for the UGT1A10 mutant, were used when the substrates were HFC, compounds 4 and 6, whereas the lower protein concentrations, 6.75 and 6.0 mg/L for UGT1A10 and the mutant, respectively, were used when the substrates were compounds 1, 2, 3, and 5.

Data set [2] deals with human intestinal microsomes (HIM). The experiment in a line: Glucuronidation by human intestinal microsomes (HIM). In kind it is in vitro ADME. How it is done: (§3) A commercial HLM pool (cat no:452210, BD Gentest, Bedford, MA) and human intestine microsomes (HIM) pool (lot. no 1110189, XenoTech, Kansas City, KS) were purchased. Pig liver samples were prepared from untreated female pigs that were used for practicing surgical procedures at the University of Kuopio (currently: University of Eastern Finland, Kuopio campus). Other animal liver microsomes were prepared as described previously.[41] The Ethics Committee for Animal Experiments, University of Kuopio, approved these experiments.
as §1, §2

Experiment in data set [3]: as above
The following applies: human, pooled human intestinal microsomes (HIM), pH 7.4. The class given is in vitro ADME. How it is done: as §3, §1, §2

The target of data set [4] is T1, UGT1A10 mutant 1A10-H210M (Homo sapiens, UniProt Q9HAW8, H210M).
T1 construct: His-tag; made in house; host or cells: baculovirus-infected SF9 insect cells
T1 sequence (Q9HAW8 26-530 H210M): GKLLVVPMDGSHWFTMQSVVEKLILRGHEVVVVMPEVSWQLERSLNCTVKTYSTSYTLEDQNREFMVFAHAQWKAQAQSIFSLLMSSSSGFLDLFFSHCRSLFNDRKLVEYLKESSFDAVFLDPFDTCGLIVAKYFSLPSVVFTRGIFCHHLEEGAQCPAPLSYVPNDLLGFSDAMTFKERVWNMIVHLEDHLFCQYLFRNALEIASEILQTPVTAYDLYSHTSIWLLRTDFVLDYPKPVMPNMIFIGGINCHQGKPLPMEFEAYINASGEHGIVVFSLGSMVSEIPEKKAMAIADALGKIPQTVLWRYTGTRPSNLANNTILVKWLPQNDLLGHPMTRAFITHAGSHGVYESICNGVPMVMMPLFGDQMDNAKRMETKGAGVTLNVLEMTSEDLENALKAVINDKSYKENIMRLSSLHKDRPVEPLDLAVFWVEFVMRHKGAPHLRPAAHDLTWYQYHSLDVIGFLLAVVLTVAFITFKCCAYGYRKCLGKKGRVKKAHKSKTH
The experiment in a line: Glucuronidation kinetics by UGT1A10 mutant 1A10-H210M (fluorescence decrease, 96-well plate). Conditions: mutant versus wild-type UGT1A10. In kind it is biochemical. How it is done:
The UGT1A10 mutant 1A10-H210 M was prepared according to the QuikChange methodology, using the cloned UGT1A10 in pFastBac[42] as a template and the following two oligonucleotides:
The entire coding sequence of UGT1A10 in the mutant clone was sequenced, and subsequently, recombinant baculovirus was prepared and used to express the mutant enzyme in baculovirus-infected SF9 insect cells.
as §1, with “Preliminary experiments were done under different conditions than most of the later assays, namely in 2.5 mL of 100 mM phosphate buffer pH 7.4, containing 500 μg pig liver microsomes, 1.0 μM compound 6 and 0.5 mM UDPGA, at room temperature.” left out
Most of the glucuronidation assays were carried out in 96 multiwell plate format, and incubations were carried out in 100 μL and at 37 °C, in the presence of Tris–HCl buffer pH 7.4, UDPGA, and the tested 7-hydroxycoumarin derivative, at the indicated concentrations. Fluorescence decline in the multiwell plate experiments was monitored every other minute, for 40 min, using an excitation filter at 405 nm and detection at 460 nm, in a Victor2 1420 Multilabel counter (PerkinElmer, Life Sciences, Turku, Finland). The fluorescence values were transformed into molarity using the aglycone substrates for making the respective standard curves. […] Enzyme catalyzed glucuronidation rate was calculated by subtracting the blank value from the full reaction value. […]

As to `O=c1oc2cc(O)ccc2cc1-n1cncn1` [Compound 6, 7-Hydroxy-3-(1H-1,2,4-triazol-1-yl)-2H-chromen-2-one], in data set [1], the Amax amounted to 392 nm and the ε abs was 20 500 cmx1*Mx1. In addition, in the data set with human UGTs, the “Selectivity among human UGTs” value is listed as “selective for UGT1A10”. Also, the Vmax in data set [2] (human intestinal microsomes) was 3.5 (2.9–4.0) μmol/(min * g prot). In data set [2] (intestinal microsomes, albumin in incubation mixture), the “Effect of adding albumin on Km and Vmax” value was “increased both Km and Vmax values”. The Km in data set [3] is 12 µM. For the same compound, the “Change of Km by the H210M mutation (in words)” value in data set [4] is given as “considerably increased”.

The record behind these values is paper PMC6150735, “Molecular Docking-Based Design and Development of a Highly Selective Probe Substrate for UDP-glucuronosyltransferase 1A10” (Molecular Pharmaceutics, 2018).
